Results as given in article PMC9323911, “Comparative Metabolomics Study of the Impact of Articaine and Lidocaine on the Metabolism of SH-SY5Y Neuronal Cells” (Metabolites, 2022).
Structures can show the parent of a compound that is named as a salt.

Assays:
[1] = design: method as in PMID 31172838; conditions: ATC vs LDC; cited from earlier work
[2] = design: method as in PMID 31172838; conditions: neutral species; cited from earlier work
SH-SY5Y cells [3] = conditions: cited from earlier work
[4] = test system: neuronal cells of a different lineage (SHEP); conditions: 24 h; cited from earlier work
SH-SY5Y cells [5] = experiment: 1H NMR metabolic profiling of culture medium (consumption/excretion); type: cell-based, human; conditions: vs control
Method: (§1) Afterward, the medium was collected and the dishes washed with cold PBS, immediately before the solvent extraction procedure described below. Unexposed cells were used as controls. Each assay comprised duplicates of each condition and three independent assays were performed, giving a total of 6 replicates per condition.
(§2) The culture medium was collected from each plate (including cell-free medium incubated under the same conditions) in conical tubes and centrifuged at 1000× g for 10 min. Furthermore, 300 µL of the supernatant were collected for protein precipitation, as described by Kostidis et al.. Briefly, 600 µL of 100% methanol (v/v) at −80 °C were added to the collected supernatant ([…]). […] The supernatant was transferred to another tube and vacuum dried (SpeedVac, Eppendorf, Hamburg, Germany). For extracting cellular metabolites, a biphasic extraction protocol (methanol:chloroform:water; 1:1:0.7) was used as previously described. The resulting polar extracts were dried under vacuum in a Speedvac concentrator, and the lipophilic extracts were dried under a nitrogen flow. All extracts were stored at −80 °C prior to NMR analysis.
(§3) For NMR analysis, dried aqueous and lipid extracts were dissolved, respectively, in 600 μL of deuterated phosphate buffer (PBS 100 mM, pH 7.4) containing 0.1 mM 3-(trimethylsilyl) propionic acid (TSP-d4), and 600 μL of deuterated chloroform containing 0.03% tetramethylsilane (TMS). […] Two-dimensional NMR spectra, namely, ^1H-^1H TOCSY, J-resolved and ^1H-^13C HSQC spectra, were also recorded for selected samples to aid metabolite identification. Signal assignment was based on matching 1D and 2D spectral information to reference spectra available in Chenomx 9.0 (Edmonton, AB, Canada), BBIOREFCODE-2–0–0 (Bruker Biospin, Rheinstetten, Germany) and HMDB.
(§4) To provide a quantitative measurement of metabolic variations, spectral integration and total area normalization of selected signals (vide Supplementary Table S1) were carried out in Amix-Viewer 3.9.15 (Bruker Biospin, Rheinstetten, Germany). For each metabolite, the percentage of variation (or fold change) in exposed samples was calculated relative to respective controls, along with the effect size (ES) and statistical significance (p-value). The variations with larger magnitude (|ES| > 0.8) were expressed in a heatmap.

SH-SY5Y cells [6] = experiment: 1H NMR metabolic profiling of cell aqueous extracts; type: cell-based, human; conditions: for 2-Ketovaline, variation in relation to control / 2-Oxoisoleucine, variation in relation to control / ATP + ADP, variation in relation to control / Alanine, variation in relation to control / Asparagine, variation in relation to control / Aspartate, variation in relation to control / Creatine, variation in relation to control / Cystathionine, variation in relation to control / Formate, variation in relation to control / Glutamate, variation in relation to control / Glutamine, variation in relation to control / Glycerophosphocholine, variation in relation to control / Glycine, variation in relation to control / Histidine, variation in relation to control / Isobutyrate, variation in relation to control / Isoleucine, variation in relation to control / Lactate, variation in relation to control / Leucine, variation in relation to control / NAD+, variation in relation to control / Panthothenic, variation in relation to control / Phenylalanine, variation in relation to control / Phosphocholine, variation in relation to control / Phosphocreatine, variation in relation to control / Proline, variation in relation to control / UDP-GlcNAc, variation in relation to control / Valine, variation in relation to control / beta-Alanine, variation in relation to control / myo-Inositol, variation in relation to control: aqueous extract
Method: as §1, §2, §3
Principal Component Analysis (PCA) and Partial Least Squares-Discriminant Analysis (PLS-DA) were applied and the results were visualized through factorial co-ordinates (‘scores’) and factorial contributions (‘loadings’) colored according to variable importance to the projection (VIP). For PLS-DA models, Q^2 and R^2 values, respectively reflecting predictive capability and explained variance, obtained from sevenfold internal cross validation, were used to assess the robustness of group discrimination.
as §4

[7] = cited from earlier work

## CCCNC(C)C(=O)Nc1c(C)csc1C(=O)OC (stereo not drawn) [ATC, Articaine hydrochloride]
[1]
  fold lower egg phosphatidylcholine/aqueous buffer partition coefficient (P) than LDC: 10 ×
[2]
  Aqueous solubility: 62.1 mM
SH-SY5Y cells [3]; 5 min exposure
  effect on cells at very short exposure: no effect
SH-SY5Y cells [3]; 20 min incubation of SH-SY5Y cells
  LD50: 9.0 mM
[4]
  LD50: 13.4 mM
SH-SY5Y cells [5]; IC10, 24 h
  pyruvate consumption: increased significantly
SH-SY5Y cells [5]; IC50, 24 h
  pyruvate consumption: no difference to controls
SH-SY5Y cells [6]; IC10, 24 h
  2-Ketovaline, variation in relation to control: 24.7%
  2-Oxoisoleucine, variation in relation to control: 33.8%
  ATP + ADP, variation in relation to control: -8.0%
  Alanine, variation in relation to control: 0.0%
  Asparagine, variation in relation to control: -24.6%
  Aspartate, variation in relation to control: -17.2%
  Creatine, variation in relation to control: 9.0%
  Cystathionine, variation in relation to control: 10.9%
  Formate, variation in relation to control: 0.0%
  Glutamate, variation in relation to control: -6.3%
  Glutamine, variation in relation to control: -10.8%
  Glycerophosphocholine, variation in relation to control: -11.3%
  Glycine, variation in relation to control: 0.0%
  Histidine, variation in relation to control: 29.6%
  Isobutyrate, variation in relation to control: 0.0%
  Isoleucine, variation in relation to control: 30.5%
  Lactate, variation in relation to control: 0.0%
  Leucine, variation in relation to control: 39.9%
  NAD+, variation in relation to control: 0.0%
  Panthothenic, variation in relation to control: 42.7%
  Phenylalanine, variation in relation to control: 43.6%
  Phosphocholine, variation in relation to control: 0.0%
  Phosphocreatine, variation in relation to control: 0.0%
  Proline, variation in relation to control: 0.0%
  UDP-GlcNAc, variation in relation to control: -18.7%
  Valine, variation in relation to control: 27.2%
  beta-Alanine, variation in relation to control: -7.4%
  myo-Inositol, variation in relation to control: -19.0%
SH-SY5Y cells [6]; IC50, 24 h
  2-Ketovaline, variation in relation to control: 28.3%
  2-Oxoisoleucine, variation in relation to control: 34.4%
  ATP + ADP, variation in relation to control: -14.0%
  Alanine, variation in relation to control: 21.3%
  Asparagine, variation in relation to control: 26.5%
  Aspartate, variation in relation to control: 23.7%
  Creatine, variation in relation to control: 14.7%
  Cystathionine, variation in relation to control: 0.0%
  Formate, variation in relation to control: 40.5%
  Glutamate, variation in relation to control: 25.8%
  Glutamine, variation in relation to control: 17.8%
  Glycerophosphocholine, variation in relation to control: -75.7%
  Glycine, variation in relation to control: 42.8%
  Histidine, variation in relation to control: 37.5%
  Isobutyrate, variation in relation to control: -78.2%
  Isoleucine, variation in relation to control: 44.5%
  Lactate, variation in relation to control: -17.5%
  Leucine, variation in relation to control: 60.3%
  NAD+, variation in relation to control: 11.9%
  Panthothenic, variation in relation to control: 40.0%
  Phenylalanine, variation in relation to control: 50.2%
  Phosphocholine, variation in relation to control: 0.0%
  Phosphocreatine, variation in relation to control: -18.9%
  Proline, variation in relation to control: -17.8%
  UDP-GlcNAc, variation in relation to control: -85.9%
  Valine, variation in relation to control: 44.8%
  beta-Alanine, variation in relation to control: -60.7%
  myo-Inositol, variation in relation to control: -42.6%
SH-SY5Y cells [6]; IC50, 24 h, vs control
  intracellular glutamate level (in words): increased
  intracellular phosphocholine level (in words): not altered
[7]
  Plasma half-life: 20 min
